In patent US9877938B2 (priority 2014, dated 2018):

Experiments:
[1] = tested on: male mice (C57BL/6) fed high-fat diet; assay: Histological examination of liver, WAT, BAT and kidney; type: in vivo; details: HFD mice, 10 weeks
Procedure: (§1) As feed, high-fat diet (60% of calories from fat; Research Diet Inc., New Brunswick, N.J.) and water were fed ad libitum for 10 weeks. Herein, the water fed contained the samples prepared in Examples 1-2 (3), 2-1, 2-4-1, 2-4-2 and 2-5. As a positive control, metformin (M-072, Sigma) (250 mg/kg) was used, and as a control, the samples prepared in Comparative Examples 1-1, 2-3-2, 2-5-1, 2-5-2 and 2-6 were used.
(§2) At 10 weeks of high-fat diet feeding, the mice were sacrificed by cervical dislocation to obtain serum. For histological examination, the liver, white adipose tissue (WAT), brown adipose tissue (BAT) and kidney were fixed with formalin (50-00-0, Junsei, Japan), and the remaining organs were stored at −70° C. The blood sampled from the heart was coagulated to obtain serum which was then stored at −70° C.
For histological examination, the major organs and adipose were fixed in 4% neutral buffered formalin and embedded in paraffin blocks, and the paraffin blocks were sectioned at 5 μm and stained with hymatoxylin (MHS-16, Sigma-Aldrich, USA) and eosin (HT110116, Sigma-Aldrich). The prepared tissue samples were mounted in glycerin gel mounting media (SP15-100, Fisher Scientific, USA), covered with cover glass, and observed with a microscope (IX71, OLYMPUS, USA). The tissue was imaged with the camera equipped in the microscope.

[2] = tested on: male mice (C57BL/6) fed high-fat diet; assay: Blood biochemistry (triglyceride, AST, ALT) in high-fat diet mice; type: in vivo
Procedure: as §1
(§3) For reference, each of the samples prepared in Examples 2-4-1, 2-4-2 and 2-5 was set to the amount to be taken by an adult (60 kg) for 3 days, and the amount was converted into a mouse dose (12-fold/kg, see the US NIH guidance), thereby preparing animal feed. Namely, the amount to be taken by an adult (60 kg) for 3 days is 180-day dose/kg, which corresponds to 15-day dose/kg for mice. Thus, the amount corresponds to 750-day dose/mouse (20 g), because the average weight of mice is about 20 g. Thus, one mouse was allowed to take 1/750 of the prepared sample each day.
(§4) In addition, each of the samples prepared in Examples 1-2 (3) and 2-1 was set to the amount to be taken by an adult (60 kg) for 2 days, and the amount was converted into a mouse dose (12-fold/kg, see the US NIH guidance), thereby preparing animal feed. Namely, the amount to be taken by an adult (60 kg) for 2 days is 120-day dose/kg, which corresponds to 10-day dose/kg for mice. Thus, the amount corresponds to 500-day dose/mouse (20 g), because the average weight of mice is about 20 g. Thus, one mouse was allowed to take 1/500 of the prepared sample each day.
In blood biochemistry, insulin (AKRIN-011T, Shibayagi, Japan), glucose (AM202, Asan Pharmaceutical Co., Ltd., Korea), triglyceride (AM157, Asan Pharmaceutical Co., Ltd.), total cholesterol (AM202, Asan Pharmaceutical Co., Ltd.), AST and ALT (Asan Pharmaceutical Co., Ltd.) were analyzed using enzymatic assay kits.
as §2
(§5) Meanwhile, experimental analysis results were expressed as mean±S.E.M., and the significance between test groups was statistically processed using Student T-TEST, and then the significance was verified at *P<0.05.

[3] = tested on: male mice (C57BL/6) fed high-fat diet; assay: Body weight and body weight gain of high-fat diet mice; type: in vivo; details: for Body weight gain, Mean: HFD mice, metformin 250 mg/kg; for body weight gain compared to high-fat diet (HFD) alone (in words): at 8 weeks after HFD feeding; for Body weight gain: mean
Procedure: (§6) Using 8-week-old male mice (C57BL/6) (purchased from CoreTech), anti-diabetic candidate materials were evaluated using a GTT (Glucose Tolerance Test) that is a typical method for diagnosis of diabetes.
(§7) Mice were housed at a temperature of 22±2° C. and a relative humidity of 55-60% with 12-hr light/12-hr dark cycles. Five animals were allotted to each group, and mice from the same mother were grouped into one group, because male mice tend to fight together.
as §1, §3, §4
The diet intake and the body weight gain were measured weekly for 8 weeks. The body weight and the diet intake were measured immediately before first drug administration, and then measured at one-week intervals.
as §5

[4] = tested on: male mice (C57BL/6) fed high-fat diet; assay: Glucose tolerance test (GTT) in high-fat diet mice; type: in vivo; details: for fasting glucose level (in words) / glucose control ability in GTT compared with HFD alone (in words): 8 weeks of HFD; for fasting glucose level (in words): 8 h fasting, compared with HFD alone, normal mice or other group; for glucose control ability in GTT compared with HFD alone (in words): glucose 1 g/kg i.p.; for Glucose level: mean
Procedure: as §6, §7, §1, §3, §4
At 8 weeks of high-fat diet feeding, a glucose tolerance test (GTT) was performed. For 8 hours for the test, mice were fasted. Then, blood was sampled from the tail vein, and initial blood glucose levels were measured with a blood glucose meter (AUTO-CHEK, Diatech Korea). Then, glucose was administered intraperitoneally to the mice at a concentration of 1 g/kg, and after 30 min, 60 min, 90 min and 120 min, blood was sampled from the mice, followed by measurement of blood glucose levels (each group consisting of five animals).
as §5

[5] = tested on: plasma; assay: Anticoagulant activity: prothrombin time (PT), Sysmex CA-1500; type: biochemical, human; details: 20 μl sample + 80 μl plasma, test material g/dL as in label, Asp 7.5 mg/ml, N=3
Procedure: (§8) Antithrombotic (anticoagulant) activity was evaluated according to a previously reported method. Each of thromborel S, actin and thrombin, which are reagents for Sysmex CA-1500 for analysis of PT, aPTT and TT, was mounted in Sysmex CA-1500 (Siemens Healthcare, Germany) which is an automated blood coagulation test device. According to the automated procedure of the test device, clotting time (sec) (prothrombin time (PT), activated partial thromboplastin time (aPTT) and thrombin time (TT)) was measured. A sufficient amount of a sample for each of the three analyses was about 400 uL of an 80:20 mixture of plasma and a test substance.
(§9) The isolated plasma was used in an experiment in a fresh state within 5-6 hours.
(§10) In this experiment, for the relative comparison of the measured clotting time (sec) (PT, aPTT and TT) between test groups, clotting time prolongation (%) relative to triple distilled water (purified water) that is a normal control test sample was statistically analyzed. For statistical analysis, the […] anticoagulant activities of test materials were comparatively analyzed using SPSS IBM version 21.0 by one-way ANOVA at p<0.05, and significance comparison between groups was performed by Duncan's test.
The aspirin solution was immediately used at room temperature in a light-shielded state or was cold-stored.
As a control, aspirin was used, and as a vehicle control, triple distilled water (purified water) was used instead of the sample.

[6] = tested on: plasma; assay: Anticoagulant activity: activated partial thromboplastin time (aPTT), Sysmex CA-1500; type: biochemical, human; details: Table 4; 20 μl sample + 80 μl plasma; test material g/dL as in label; Asp 7.5 mg/ml; N=3
Procedure: as §8, §9, §10
The aspirin solution was immediately used at room temperature in a light-shielded state or was cold-stored. […]

[7] = HFD mice serum, compared with reference diet, HFD or other group
[8] = 8 weeks, sample in drinking water (1/500 per day), Tables 6, 9, 12

With `NCCS(=O)(=O)O` [DT15] the “accumulation of adipose in brown adipose tissue (histology)” value [1] was “decreased”, the “development of fatty liver (histology)” value [1] was “decreased” and the “nephrotoxicity (histology)” value ([1]; kidney) was “did not appear”. For the same compound, the “triglyceride level (in words)” value ([2]; HFD mice serum, compared with normal/reference diet or other group) was “significantly lower than that of DT19”, the “ALT level (in words)” value [2, 7] was “lower than those of DT19” and the “AST level (in words)” value [2, 7] was “lower than those of DT19”. The ALT level ([2]; blood, mean) was 14.02 IU/L, the AST level ([2]; blood, mean) was 98.96 IU/L and the Triglyceride level ([2]; blood, mean) was 53.62 mg/dL. The “Body weight gain, Mean” value ([3]; 2 weeks, sample in drinking water (1/500 per day), Tables 6, 9, 12) was 4.40 g, the “Body weight gain, Mean” value [3, 8] was 11.58 g and the “body weight gain compared to high-fat diet (HFD) alone (in words)” value [3] was “significant reduction in body weight gain”. The “fasting glucose level (in words)” value [4] was “lower than that of the mice administered with high-fat diet (HFD), and were similar to the blood glucose levels of normal mice”, the “glucose control ability in GTT compared with HFD alone (in words)” value [4] was “significantly higher than that of the group administered with HFD alone” and the Glucose level ([4]; GTT 0 min (fasting)) was 121.25 mg/dL. It also gave a Glucose level ([4]; GTT 30 min) of 335.25 mg/dL, a Glucose level ([4]; GTT 60 min) of 295.25 mg/dL and a Glucose level ([4]; GTT 90 min) of 193.75 mg/dL. It also gave a Glucose level ([4]; GTT 120 min) of 126.25 mg/dL.

In the case of `O=C(CO)[C@@H](O)[C@H](O)[C@H](O)CO` [Fruc 6.2, fructose], the “PT clotting time prolongation relative to purified water, Mean” value ([5]; Table 4) is reported as 0.54% and the “aPTT clotting time prolongation relative to purified water, Mean” value [6] is reported as −0.20%.

In the case of `O=C(CO)[C@@H](O)[C@H](O)[C@H](O)CO` [Fruc 12.4, fructose], the “PT clotting time prolongation relative to purified water, Mean” value ([5]; Table 4) is reported as 0.54% and the “aPTT clotting time prolongation relative to purified water, Mean” value [6] is reported as 0.58%.

In the case of `CC(=O)Oc1ccccc1C(=O)O` [Asp, aspirin], the “PT clotting time prolongation relative to purified water, Mean” value ([5]; Table 2) is reported as 9.90%.

In the case of `CN(C)C(=N)N=C(N)N` [Metformin, metformin], the “Body weight gain, Mean” value ([3]; 1 week, Table 15 experiment, sample in drinking water (1/750 per day)) is reported as 2.445 g, the Body weight gain ([3]; 2 weeks) is reported as 2.503 g and the Body weight gain ([3]; 3 weeks) is reported as 4.020 g. The “Body weight gain, Mean” value ([3]; 4 weeks, Table 15 experiment, sample in drinking water (1/750 per day)) was 4.600 g, the Body weight gain ([3]; 4 weeks) was 4.600 g and the Body weight gain ([3]; 5 weeks) was 6.093 g. For the same compound, the Body weight gain ([3]; 6 weeks) was 7.250 g, the Body weight gain ([3]; 7 weeks) was 6.263 g and the “Body weight gain, Mean” value ([3]; 8 weeks, Table 15 experiment, sample in drinking water (1/750 per day)) was 8.238 g.

`NCCS(=O)(=O)O` [DT19, taurine, reference compound] was tested, and the “Body weight gain, Mean” value [3, 8] was 9.52 g, the “body weight gain compared to high-fat diet (HFD) alone (in words)” value [3] was “significant reduction in body weight gain” and the “fasting glucose level (in words)” value [4] was “lower than that of the mice administered with high-fat diet (HFD), and were similar to the blood glucose levels of normal mice”. For the same compound, the “glucose control ability in GTT compared with HFD alone (in words)” value [4] was “significantly higher than that of the group administered with HFD alone”.
